Results on two compounds are retold here after BindingDB's records for doi:10.3109/14756366.2012.680063 (Rhodes University, 2013).

Assay [1] has as its target T1, Superoxide dismutase [Cu-Zn] (Bovine, UniProt P00442). Description: SOD Assay (Fluorimetric Analysis). The note with it: pH 8; 37 °C. As to the method: SOD activity of the purified samples was determined by the SOD assay kit using (2-(4-iodophenyl)-3-(4nitrophenyl)-5-(2,4-disulphenyl)-2H-tetrazolium, monosodium salt) [WST] which is a colorimetric assay that monitors the rate of inhibition of WST to a water soluble formazan dye.

Assay [2] addresses T1, Superoxide dismutase [Cu-Zn]. As to the kind of experiment: SOD Assay (Kinetic Analysis).

Residues, ends and D or L forms follow the SMILES beside them.

Usually Kd stands for a measure of binding affinity in units of concentration. What is called Ki is a measure of affinity in units of concentration, obtained from inhibition or displacement. Higher therefore signals weaker binding.

T1 sequence (P00442 whole entry): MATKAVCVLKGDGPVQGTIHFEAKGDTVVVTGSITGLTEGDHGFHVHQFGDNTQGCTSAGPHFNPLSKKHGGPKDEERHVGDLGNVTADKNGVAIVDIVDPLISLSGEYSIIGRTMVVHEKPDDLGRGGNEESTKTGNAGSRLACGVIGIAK

In turn, `CC[C@H](C)[C@H](NC(=O)[C@H](C)NC(=O)CN)C(=O)N[C@H](C(=O)NCC(=O)O)[C@@H](C)CC` [Aβ (29-33)] (H-GAIIG-OH) gave a Kd in assay [1] of 15.7 µM. This compound came in with a Ki in assay [2] of 13.2 µM.

On to `CC[C@H](C)[C@H](NC(=O)[C@H](C)NC(=O)CNC(=O)[C@H](CCCCN)NC(=O)[C@H](CC(N)=O)NC(=O)[C@H](CO)NC(=O)CN)C(=O)N[C@H](C(=O)NCC(=O)N[C@@H](CC(C)C)C(=O)N[C@@H](CCSC)C(=O)N[C@H](C(=O)NCC(=O)O)C(C)C)[C@@H](C)CC` [Aβ (25-37)] (H-GSNKGAIIGLMVG-OH), for which, in assay [1], the Kd turned out to be 9.38 µM. Also, in assay [2], the inhibitory constant (Ki) came to 14.4 µM.
